The values that follow come from patent US20240398784A1, “C-LINKED ISOQUINOLINE AMIDES AS LRRK2 INHIBITORS, PHARMACEUTICAL COMPOSITIONS, AND USES THEREOF” (Merck Sharp & Dohme LLC, priority 2021, published 2024).

The target in this test is LRRK2 G2019S (Homo sapiens, UniProt Q5S007, G2019S). Nature of the test: LRRK2 G2019S Km ATP LanthaScreen assay. The following applies: read-out: LRRK2 pIC50 (converted). The test is classed as biochemical. The protocol: Unless otherwise noted, all reactions are magnetically stirred. Unless otherwise noted, when diethyl ether is used in the experiments described below, it is Fisher ACS certified material and is stabilized with BHT. Unless otherwise noted, “concentrated” and/or “solvent removed under reduced pressure” means evaporating the solvent from a solution or mixture using a rotary evaporator or vacuum pump. Unless otherwise noted, flash chromatography is carried out on a Teledyne Isco (Lincoln, NE), Analogix (Burlington, WI), or Biotage (Stockholm, SWE) automated chromatography system using a commercially available cartridge as the column. Columns may be purchased from Teledyne Isco, Analogix, Biotage, Varian (Palo Alto, CA), or Supelco (Bellefonte, PA) and are usually filled with silica gel as the stationary phase. Reverse phase prep-HPLC conditions, where used, can be found at the end of each experimental section. Aqueous solutions were concentrated on a Genevac (Ipswich, ENG) or by freeze-drying/lyophilization.
LRRK2 G2019S, sequence (Q5S007 whole entry G2019S): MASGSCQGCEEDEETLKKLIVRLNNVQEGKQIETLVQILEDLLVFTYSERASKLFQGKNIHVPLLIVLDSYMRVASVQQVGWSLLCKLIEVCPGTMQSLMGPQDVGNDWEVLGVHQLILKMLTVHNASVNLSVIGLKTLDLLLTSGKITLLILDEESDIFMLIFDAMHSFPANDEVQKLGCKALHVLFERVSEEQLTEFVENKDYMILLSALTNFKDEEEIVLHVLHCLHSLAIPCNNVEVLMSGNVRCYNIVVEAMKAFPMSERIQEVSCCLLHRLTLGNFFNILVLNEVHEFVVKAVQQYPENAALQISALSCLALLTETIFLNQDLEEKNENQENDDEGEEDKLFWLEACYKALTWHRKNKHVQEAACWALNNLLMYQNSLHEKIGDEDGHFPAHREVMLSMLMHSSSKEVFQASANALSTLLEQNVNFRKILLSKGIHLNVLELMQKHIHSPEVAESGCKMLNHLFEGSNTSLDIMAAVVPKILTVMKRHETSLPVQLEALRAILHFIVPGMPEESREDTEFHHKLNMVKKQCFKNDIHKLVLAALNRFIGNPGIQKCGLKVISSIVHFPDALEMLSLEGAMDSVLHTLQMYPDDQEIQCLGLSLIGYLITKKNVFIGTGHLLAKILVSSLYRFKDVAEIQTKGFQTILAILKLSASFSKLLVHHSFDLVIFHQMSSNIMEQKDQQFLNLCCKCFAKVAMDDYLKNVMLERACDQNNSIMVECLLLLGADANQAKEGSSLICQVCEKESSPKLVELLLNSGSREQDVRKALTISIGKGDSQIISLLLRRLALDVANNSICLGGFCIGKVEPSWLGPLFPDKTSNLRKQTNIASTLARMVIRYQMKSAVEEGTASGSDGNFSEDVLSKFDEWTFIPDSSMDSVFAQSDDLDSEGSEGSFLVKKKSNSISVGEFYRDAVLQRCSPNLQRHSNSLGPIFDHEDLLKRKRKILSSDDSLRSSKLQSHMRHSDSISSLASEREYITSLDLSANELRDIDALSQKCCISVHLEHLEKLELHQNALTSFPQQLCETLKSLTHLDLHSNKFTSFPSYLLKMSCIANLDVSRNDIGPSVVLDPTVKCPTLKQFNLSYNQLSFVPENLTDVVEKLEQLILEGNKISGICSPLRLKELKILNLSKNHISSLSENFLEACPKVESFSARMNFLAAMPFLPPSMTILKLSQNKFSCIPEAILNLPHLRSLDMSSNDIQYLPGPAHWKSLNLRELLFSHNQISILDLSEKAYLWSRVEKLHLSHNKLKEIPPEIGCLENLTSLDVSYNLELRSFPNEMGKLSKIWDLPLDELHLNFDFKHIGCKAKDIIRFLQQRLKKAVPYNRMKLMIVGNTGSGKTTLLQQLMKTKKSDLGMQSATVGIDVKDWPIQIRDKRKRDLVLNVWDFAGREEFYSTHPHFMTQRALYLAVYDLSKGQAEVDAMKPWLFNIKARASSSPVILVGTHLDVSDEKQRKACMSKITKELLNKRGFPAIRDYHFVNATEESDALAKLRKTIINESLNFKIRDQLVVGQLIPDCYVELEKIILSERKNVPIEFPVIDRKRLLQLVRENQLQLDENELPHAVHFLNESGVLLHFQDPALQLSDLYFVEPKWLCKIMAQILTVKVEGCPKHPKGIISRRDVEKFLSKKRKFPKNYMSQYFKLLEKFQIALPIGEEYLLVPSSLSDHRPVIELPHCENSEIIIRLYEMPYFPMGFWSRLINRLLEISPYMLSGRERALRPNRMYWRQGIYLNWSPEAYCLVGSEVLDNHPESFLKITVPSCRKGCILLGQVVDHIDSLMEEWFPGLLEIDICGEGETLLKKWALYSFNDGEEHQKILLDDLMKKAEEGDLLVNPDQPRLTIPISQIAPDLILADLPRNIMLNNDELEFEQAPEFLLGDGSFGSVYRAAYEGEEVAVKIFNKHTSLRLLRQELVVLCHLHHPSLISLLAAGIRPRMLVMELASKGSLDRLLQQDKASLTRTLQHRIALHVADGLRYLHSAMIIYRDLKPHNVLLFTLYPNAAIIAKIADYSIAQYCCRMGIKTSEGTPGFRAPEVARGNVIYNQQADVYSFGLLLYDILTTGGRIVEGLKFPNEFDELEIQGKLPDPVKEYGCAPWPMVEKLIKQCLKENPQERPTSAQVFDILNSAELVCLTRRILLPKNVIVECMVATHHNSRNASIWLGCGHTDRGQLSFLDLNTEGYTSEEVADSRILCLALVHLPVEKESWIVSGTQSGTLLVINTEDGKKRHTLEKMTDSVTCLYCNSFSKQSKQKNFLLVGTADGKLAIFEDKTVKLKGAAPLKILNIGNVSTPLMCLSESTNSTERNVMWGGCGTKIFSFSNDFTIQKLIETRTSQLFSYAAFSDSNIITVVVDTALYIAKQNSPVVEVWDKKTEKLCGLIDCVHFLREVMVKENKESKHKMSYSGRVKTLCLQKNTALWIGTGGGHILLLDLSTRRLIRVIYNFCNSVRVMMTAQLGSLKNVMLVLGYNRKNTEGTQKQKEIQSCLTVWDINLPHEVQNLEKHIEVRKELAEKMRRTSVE
For `CC1C(C(=O)Nc2cc3cc(C4CCN(C5COC5)CC4)c(Cl)cc3cn2)C1(F)F` (racemic) [Ex-1.6, Rac-N-(7-chloro-6-(1-(oxetan-3-yl)piperidin-4-yl)isoquinolin-3-yl)-2,2-difluoro-3-methylcyclopropane-1-carboxamide], the IC50 was 1.86 nM.

For the molecule `O=C(Nc1cc2cc(C3CCN(C4COC4)CC3)c(Cl)cc2cn1)C1CC12CCOCC2` (racemic) [Ex-1.9, Rac-N-(7-chloro-6-(1-(oxetan-3-yl)piperidin-4-yl)isoquinolin-3-yl)-6-oxaspiro[2.5]octane-1-carboxamide], the IC50 is 2.88 nM.

With `O=C(Nc1cc2cc(C3CCN(C4COC4)CC3)c(Cl)cc2cn1)C1CC12CCC2` (racemic) [Ex-1.14, Rac-N-(7-chloro-6-(1-(oxetan-3-yl)piperidin-4-yl)isoquinolin-3-yl)spiro[2.3]hexane-1-carboxamide], the IC50 was 1.35 nM.

With `CC1CC(C(=O)Nc2cc3cc(C4CCN(C5(C)COC5)CC4)c(Cl)cc3cn2)C1` (racemic) [Ex-1.16, Rac-N-(7-chloro-6-(1-(3-methyloxetan-3-yl)piperidin-4-yl)isoquinolin-3-yl)-3-methylcyclobutane-1-carboxamide], the IC50 is 5.5 nM.

Turning to `CC(C)C1CC(C(=O)Nc2cc3cc(C4CCN(C5(C)COCC5O)CC4)c(Cl)cc3cn2)C1` (racemic) [Ex-1.22, Rac-N-(7-chloro-6-(1-(4-hydroxy-3-methyltetrahydrofuran-3-yl)piperidin-4-yl)isoquinolin-3-yl)-3-isopropylcyclobutane-1-carboxamide], the IC50 is 0.977 nM.

In the case of `COC1CC(C(=O)Nc2cc3cc(C4CCN(C5COC5)CC4)c(Cl)cc3cn2)C1` (racemic) [Ex-7.9, Rac-N-(7-chloro-6-(1-(oxetan-3-yl)piperidin-4-yl)isoquinolin-3-yl)-3-methoxycyclobutane-1-carboxamide], the IC50 is 2.63 nM.

Take `Cn1ncc(C2CC2C(=O)Nc2cc3cc(C4CCN(C5(C)COCC5O)CC4)c(Cl)cc3cn2)n1` (racemic) [Ex-20.2, (1R,2R and 1S,2S)-N-(7-chloro-6-(1-(4-hydroxy-3-methyltetrahydrofuran-3-yl)piperidin-4-yl)isoquinolin-3-yl)-2-(2-methyl-2H-1,2,3-triazol-4-yl)cyclopropane-1-carboxamide]: the IC50 is 0.0813 nM.

For `COC1CC(C(=O)Nc2cc3cc(C4(C#N)CC45CC5)ccc3cn2)C1` (single isomer, unassigned) [Ex-1.2, (1R,3R or 1S,3S)-N-(6-((R or S)-1-cyanospiro[2.2]pentan-1-yl)isoquinolin-3-yl)-3-methoxycyclobutane-1-carboxamide], the IC50 was 0.661 nM.

Take `COC1CC(C(=O)Nc2cc3cc(C4(C#N)CC45CC5)ccc3cn2)C1` (single isomer, unassigned) [Ex-1.3, (1R,3R or 1S,3S)-N-(6-((R or S)-1-cyanospiro[2.2]pentan-1-yl)isoquinolin-3-yl)-3-methoxycyclobutane-1-carboxamide]: the IC50 is 0.631 nM.

As to `COC1CC(C(=O)Nc2cc3cc(C4(C#N)CC45CC5)ccc3cn2)C1` (single isomer, unassigned) [Ex-1.4, (1R,3R or 1S,3S)-N-(6-((R or S)-1-cyanospiro[2.2]pentan-1-yl)isoquinolin-3-yl)-3-methoxycyclobutane-1-carboxamide], the IC50 was 3.63 nM.

In the case of `O=C(Nc1cc2cc(C3CCN(C4COC4)CC3)c(Cl)cc2cn1)C1CC1(F)F` (single isomer, unassigned) [Ex-1.5, (R or S)-N-(7-chloro-6-(1-(oxetan-3-yl)piperidin-4-yl)isoquinolin-3-yl)-2,2-difluorocyclopropane-1-carboxamide], the IC50 was 5.89 nM.

Consider `O=C(Nc1cc2cc(C3CCN(C4COC4)CC3)c(Cl)cc2cn1)[C@H]1C[C@@H]1F` (single isomer, unassigned) [Ex-1.7, (1R,3S or 1S,3R)-N-(7-chloro-6-(1-(oxetan-3-yl)piperidin-4-yl)isoquinolin-3-yl)-2-fluorocyclopropane-1-carboxamide], for which the IC50 is 1.12 nM.

As to `O=C(Nc1cc2cc(C3CCN(C4COC4)CC3)c(Cl)cc2cn1)C1CC12CCC(F)(F)CC2` (single isomer, unassigned) [Ex-1.8, (R or S)-N-(7-chloro-6-(1-(oxetan-3-yl)piperidin-4-yl)isoquinolin-3-yl)-6,6-difluorospiro[2.5]octane-1-carboxamide], the IC50 was 21.4 nM.

For `N#CC1(c2ccc3cnc(NC(=O)C4CCC4)cc3c2)CC12CC2` (single isomer, unassigned) [Ex-1.15, (R or S)-N-(6-(1-cyanospiro[2.2]pentan-1-yl)isoquinolin-3-yl)cyclobutanecarboxamide], the IC50 is 3.24 nM.

Consider `CC1(N2CCC(c3cc4cc(NC(=O)[C@@H]5CCCCO5)ncc4cc3Cl)CC2)COCC1O` (single isomer, unassigned) [Ex-1.17, (S)-N-(7-chloro-6-(1-((3R,4R or 3S,4S)-4-hydroxy-3-methyltetrahydrofuran-3-yl)piperidin-4-yl)isoquinolin-3-yl)tetrahydro-2H-pyran-2-carboxamide], for which the IC50 was 0.178 nM.

As for `CC1(N2CCC(c3cc4cc(NC(=O)C5CC(F)(F)C5)ncc4cc3Cl)CC2)COCC1O` (single isomer, unassigned) [Ex-1.18, N-(7-chloro-6-(1-((3R,4R or 3S,4S)-4-hydroxy-3-methyltetrahydrofuran-3-yl)piperidin-4-yl)isoquinolin-3-yl)-3,3-difluorocyclobutane-1-carboxamide], the IC50 was 1.35 nM.

On to `CN1CCC(C(=O)Nc2cc3cc(C4CCN(C5(C)COCC5O)CC4)c(Cl)cc3cn2)CC1` (single isomer, unassigned) [Ex-1.19, N-(7-chloro-6-(1-((3R,4R or 3S,4S)-4-hydroxy-3-methyltetrahydrofuran-3-yl)piperidin-4-yl)isoquinolin-3-yl)-1-methylpiperidine-4-carboxamide], for which the IC50 is 0.38 nM.

`CC1(N2CCC(c3cc4cc(NC(=O)C5C6CCCC65)ncc4cc3Cl)CC2)COCC1O` (single isomer, unassigned) [Ex-1.20, N-(7-chloro-6-(1-((3R,4R or 3S,4S)-4-hydroxy-3-methyltetrahydrofuran-3-yl)piperidin-4-yl)isoquinolin-3-yl)bicyclo[3.1.0]hexane-6-carboxamide]: the IC50 was 0.182 nM.

In the case of `CC(C)(O)C1CC1C(=O)Nc1cc2cc(C3CCN(C4(C)COCC4O)CC3)c(Cl)cc2cn1` (single isomer, unassigned) [Ex-1.21, (1R,2R or 1S,2S)-N-(7-chloro-6-(1-((3R,4R or 3S,4S)-4-hydroxy-3-methyltetrahydrofuran-3-yl)piperidin-4-yl)isoquinolin-3-yl)-2-(2-hydroxypropan-2-yl)cyclopropane-1-carboxamide], the IC50 is 0.0912 nM.

`Cn1cc(C2CC2C(=O)Nc2cc3cc(C4(C#N)CC45CC5)ccc3cn2)cn1` (single isomer, unassigned) [Ex-1.23, (1R,2R or 1S,2S)-N-(6-((R or S)-1-cyanospiro[2.2]pentan-1-yl)isoquinolin-3-yl)-2-(1-methyl-1H-pyrazol-4-yl)cyclopropane-1-carboxamide]: the IC50 was 1.58 nM.

For the molecule `Cn1cc(C2CC2C(=O)Nc2cc3cc(C4(C#N)CC45CC5)ccc3cn2)cn1` (single isomer, unassigned) [Ex-1.24, (1R,2R or 1S,2S)-N-(6-((R or S)-1-cyanospiro[2.2]pentan-1-yl)isoquinolin-3-yl)-2-(1-methyl-1H-pyrazol-4-yl)cyclopropane-1-carboxamide], the IC50 was 0.0813 nM.

Turning to `CCC1C(C(=O)Nc2cc3cc(C4(C#N)CC45CC5)ccc3cn2)C1c1cnn(C)c1` (single isomer, unassigned) [Ex-1.25, (1R,3R or 1S,3S)-N-(6-((R or S)-1-cyanospiro[2.2]pentan-1-yl)isoquinolin-3-yl)-2-ethyl-3-(1-methyl-1H-pyrazol-4-yl)cyclopropane-1-carboxamide], the IC50 is 0.661 nM.

Regarding `CC(C)(O)C1CC(C(=O)Nc2cc3cc(C4(C#N)CC45CC5)ccc3cn2)C1` (single isomer, unassigned) [Ex-1.26, (1R,3R or 1S,3S)-N-(6-((R or S)-1-cyanospiro[2.2]pentan-1-yl)isoquinolin-3-yl)-3-(2-hydroxypropan-2-yl)cyclobutane-1-carboxamide], the IC50 is 3.39 nM.

Turning to `CC1(C)CC(C(=O)Nc2cc3cc(C4(C#N)CC45CC5)ccc3cn2)CC(C)(C)O1` (single isomer, unassigned) [Ex-1.27, N-(6-((R or S)-1-cyanospiro[2.2]pentan-1-yl)isoquinolin-3-yl)-2,2,6,6-tetramethyltetrahydro-2H-pyran-4-carboxamide], the IC50 was 9.77 nM.

In the case of `CC(C)OC1CCC(C(=O)Nc2cc3cc(C4(C#N)CC45CC5)ccc3cn2)OC1` (single isomer, unassigned) [Ex-1.28, N-(6-((R or S)-1-cyanospiro[2.2]pentan-1-yl)isoquinolin-3-yl)-5R or 5S-isopropoxytetrahydro-2H-pyran-2R-carboxamide], the IC50 was 24 nM.

Regarding `N#CC1(c2ccc3cnc(NC(=O)[C@@H]4C[C@@H](O)[C@H](F)C4)cc3c2)CC12CC2` (single isomer, unassigned) [Ex-1.29, (1R,3R,4R)-N-(6-((R or S)-1-cyanospiro[2.2]pentan-1-yl)isoquinolin-3-yl)-3-fluoro-4-hydroxycyclopentane-1-carboxamide], the IC50 was 20.4 nM.

Regarding `N#CC1(c2ccc3cnc(NC(=O)C4CCN(C(=O)C(F)(F)F)CC4)cc3c2)CC12CC2` (single isomer, unassigned) [Ex-1.30, N-(6-((R or S)-1-cyanospiro[2.2]pentan-1-yl)isoquinolin-3-yl)-1-(2,2,2-trifluoroacetyl)piperidine-4-carboxamide], the IC50 is 14.1 nM.
